# Assay results: patent US10398663B2, “Mitochondrial delivery of 3-bromopyruvate” (priority 2014, dated 2019)
# Tests used:
# Format in all cases: cell-based, Human
# PC3 cells [1] = test: Bioenergetic assay (Seahorse XF24, ECAR and OCR); settings: 10 μM with respect to 3-BP, 6 h
# Method: Prior to the assay, XF sensor cartridges were hydrated. To each well of an XF utility plate, 1 mL of Seahorse Bioscience calibrant was added and the XF sensor cartridges were placed on top of the utility plate, and kept at 37° C. incubator without CO2 for a minimum of 12 h. PC3 cells were cultured in XF24-well cell culture microplates (Seahorse Bioscience) at a density of 5×10^4 cells/well (0.32 cm2) in 200 μL growth medium and then incubated for 24 h at 37° C. in 5% CO2 atmosphere. The three key parameters of glycolytic function: glycolysis, glycolytic capacity, and glycolytic reserve were assessed using a Seahorse XF glycolysis stress kit. After the cells were attached, an additional 100 μL growth medium was added and the cells were incubated for 24 h at 37° C. in 5% CO2 atmosphere. […] The OCR and the ECAR were measured simultaneously for 16 min to establish a baseline rate. Glycolysis, glycolytic capacity, and glycolytic reserve were calculated by subtracting the average rates before and after the addition of glucose (10 mM), ATP synthase inhibitor oligomycin (1.0 μM), and 2-deoxy-D-glucose (2-DG) (100 mM). These three compounds were injected consecutively with specific time gap and ECAR values were measured after each injection. […]
# PC3 cells [2] = test: MTT assay, PC3 cells; settings: with respect to 3-BP, 72 h
# Method: (§1) Human prostate cancer PC3, DU145 cells and RAW 264.7 macrophages were procured from the American type culture collection (ATCC). DU145 cells were grown at 37° C. in 5% CO2 in Eagle's minimum essential medium (EMEM) supplemented with 10% fetal bovine serum (FBS) and 1% penicillin/streptomycin. PC3 cells were grown in Roswell Park Memorial Institute (RPMI) 1640 medium supplemented with 10% FBS and 1% penicillin/streptomycin. RAW 264.7 macrophages were cultured in RPMI media supplemented with 10% FBS and 1% penicillin/streptomycin. Cells were passed every 3 to 4 days and restarted from frozen stocks upon reaching pass number 20.
# (§2) Cytotoxicity profiles of T-AuNPs, NT-AuNPs, T-3-BPAuNPs, NT-3-BP-AuNPs, and 3-BP were studied using the MTT assay against prostate cancer PC3 and DU145 cell lines. Cells (2000 cells/well) were seeded on a 96-well plate in 100 μL of desired medium and incubated for 24 h. The cells were then treated with different constructs at varying concentrations and incubated for 12 h at 37° C. and the media was changed. […] The medium was removed, the cells were lysed with 100 μL of DMSO, and the absorbance of the purple formazan was recorded at 550 nm using a Bio-Tek Synergy HT microplate reader and background absorbance was measured at 800 nm. […] Cytotoxicity was expressed as mean percentage […] relative to the unexposed control±standard deviation (SD). […]
# PC3 cells [3] = test: CellTiter-Glo luminescent ATP quantification; settings: 10 μM with respect to 3-BP, 6 h
# Method: PC3 cells were seeded at a density of 1×10^6 cells/mL in a 12 well plate and allowed to grow for 12 h at 37° C. under 5% CO2. Cells were treated with T-AuNP (1 mg/mL), NT-AuNP (1 mg/mL), T-3-BP-AuNP (14.1 μg/mL with respect to NP, 10 μM with respect to 3-BP), NT-3-BP-AuNP (13.7 μg/mL with respect to NP, 10 μM with respect to 3-BP), free 3-BP (10 μM) for 6 h at 37° C. in 5% CO2 atmosphere. Control wells containing medium without cells were used to obtain background luminescence value. Plates were then equilibrated at room temperature for ˜30 min. A volume of CellTiter-Glo reagent equal to the volume of cell culture medium present in each well was added, this mixtures were mixed for 2 min in a shaker to induce cell lysis. The plates were incubated at room temperature for additional 10 min to stabilize luminescent signal. Luminescence was recorded using a plate reader. ATP quantification was carried out from a standard curve using ATP disodium salt hydrate.
# DU145 cells = test: MTT assay, DU145 cells; settings: with respect to 3-BP, 72 h
# Method: as §1, §2
# PC3 cells [4] = test: Apoptosis detection by flow cytometry (Annexin V-PI); settings: 6 h, dark
# Method: PC3 cells were plated at a density of 1×10^6 cells/mL and allowed to grow for 14 h. Media was changed and cells were treated with T-AuNP (1 mg/mL), NT-AuNP (1 mg/mL), T-3-BP-AuNP (14.1 μg/mL with respect to NP, 10 μM with respect to 3-BP), NT-3-BP-AuNP (13.7 μg/mL with respect to NP, 10 μM with respect to 3-BP), free 3-BP (10 μM or 1 mM) for 6 h at 37° C. As positive controls, etoposide (100 μM, incubation time: 12 h) for apoptosis and H2O2 (1 mM, incubation time: 45 min) for necrosis were used. For apoptosis detection after laser treatment, cells were treated with T-AuNP (1 mg/mL), NT-AuNP (1 mg/mL), T-3-BP-AuNP (14.1 μg/mL with respect to NP, 10 μM with respect to 3-BP), NT-3-BP-AuNP (13.7 μg/mL with respect to NP, 10 μM with respect to 3-BP), free 3-BP (10 μM) for 4 h at 37° C., irradiated with laser of 660 nm for 1 min, and further incubated for 12 h. […] Cells were counted and resuspended in 1× annexinbinding buffer at a density of ˜1×10^6 cells/mL preparing a sufficient volume to have 100 μL per assay. To 100 μL of cell suspension, 5 μL Alexa Fluor® 488 annexin V and 1 μL 100 μg/mL PI working solution were added, incubated for 15 min at room temperature, followed by addition of 400 μL 1× annexin-binding buffer, gently mixing in ice, and the samples were analyzed on the flow cytometer immediately.
# PC3 cells [5] = test: Lactate determination; settings: 10 μM with respect to 3-BP, 6 h
# Method: PC3 cells were seeded at a density of 1×10^6 cells/mL and allowed to grow for 12 h at 37° C. under 5% CO2. Cells were treated with T-AuNP (1 mg/mL), NT-AuNP (1 mg/mL), T-3-BP-AuNP (14.1 μg/mL with respect to NP, 10 μM with respect to 3-BP), NT-3-BP-AuNP (13.7 μg/mL with respect to NP, 10 μM with respect to 3-BP), free 3-BP (10 μM) for 6 h at 37° C. After 6 h, the media was removed and the cells were homogenized. The lysate and the media supernatant were added to the enzyme and substrate working reagent mixture and incubated for 30 min. Lactate concentration was measured using Bio-Tek Synergy HT microplate reader at 450 nm and comparing to a standard curve.
smiles,measurement,setting,value
"O=C(O)C(=O)CBr [3-BP, 3-bromopyruvate]",glycolysis inhibition (ECAR response to glucose),PC3 cells [1],did not show any glycolysis inhibitory effect
same,IC50,PC3 cells [2],271 ± 9 µM
same,level of ATP,PC3 cells [3],decrease
same,IC50,DU145 cells,541 ± 37 µM
same,apoptotic activity,PC3 cells [4]; 10 μM,unable to show any apoptotic activity
same,apoptotic activity,PC3 cells [4]; 1 mM,significant apoptosis
same,extracellular lactate level,PC3 cells [5],declined
same,intracellular lactate level,PC3 cells [5],declined
